In patent US11208386B2, “Inhibitors of protein arginine deiminases (PADs) and methods of preparation and use thereof” (University of Massachusetts, priority 2016, dated 2021):

How the values were obtained:
[1] = cited from earlier work
[2] = target: T1, PAD4 (Homo sapiens, UniProt Q9UM07); assay: Inactivation kinetics, PAD4; assay type: biochemical; conditions: for kinact/KI: a: single kobs determined, b: from a linear fit; for Fold PAD4 Selectivity: kinact/KI relative to least inhibited isozyme (1.0)
T1 construct: made in house
Outline: (§1)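 PAD1, 2 or 4 (2.0 μM) or PAD3 (5.0 μM) preincubated at 37 °C with varying inhibitor in 50 mM HEPES, 10 mM CaCl2, 2 mM DTT, pH 7.6. Timed aliquots assayed 15 min with 10 mM BAEE (BAA for PAD3); citrulline quantified by COLDER.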

[3] = target: T2, PAD1 (Homo sapiens, UniProt Q9ULC6); assay: Inactivation kinetics, PAD1; assay type: biochemical; conditions: for kinact/KI: a: single kobs determined, b: from a linear fit; for Fold PAD1 Selectivity: kinact/KI relative to least inhibited isozyme (1.0)
T2 construct: made in house
T2 sequence (Q9ULC6 1-663): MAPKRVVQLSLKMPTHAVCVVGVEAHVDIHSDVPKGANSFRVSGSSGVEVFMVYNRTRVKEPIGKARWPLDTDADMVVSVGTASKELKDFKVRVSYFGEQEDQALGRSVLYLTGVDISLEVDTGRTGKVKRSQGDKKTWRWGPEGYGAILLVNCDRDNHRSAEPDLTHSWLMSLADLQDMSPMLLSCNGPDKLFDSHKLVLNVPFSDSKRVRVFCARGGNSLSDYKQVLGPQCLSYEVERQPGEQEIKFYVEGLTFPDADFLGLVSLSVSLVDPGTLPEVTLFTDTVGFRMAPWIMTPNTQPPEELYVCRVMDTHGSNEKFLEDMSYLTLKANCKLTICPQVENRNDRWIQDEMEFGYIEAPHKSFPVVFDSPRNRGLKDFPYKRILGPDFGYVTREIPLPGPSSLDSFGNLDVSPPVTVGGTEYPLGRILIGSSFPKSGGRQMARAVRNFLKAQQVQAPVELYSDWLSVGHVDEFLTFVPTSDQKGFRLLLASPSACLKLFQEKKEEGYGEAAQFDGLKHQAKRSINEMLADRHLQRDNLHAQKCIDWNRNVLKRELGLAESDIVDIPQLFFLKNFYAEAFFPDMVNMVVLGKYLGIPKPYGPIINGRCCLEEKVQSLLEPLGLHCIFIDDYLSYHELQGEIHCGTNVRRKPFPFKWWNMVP
Outline: as §1

[4] = target: T3, PAD2 (Homo sapiens, UniProt Q9Y2J8); assay: In vitro labeling of PAD2 with clickable probes to determine limit of detection; assay type: binding; conditions: probe clicked with TAMRA-N3
T3 construct: made in house
Protocol: In Vitro Labeling o f PAD2 with BB-F-Yne (5u) and BB-C-Yne (5v) to Determine their Limit of detection (LOD)
BB-F-Yne (5u) or BB-Cl-Yne (5v) (10 μM) were incubated with decreasing concentrations of recombinant PAD2 (1.0 to 0.025 μM) in the presence of CaCl2 in 1×PBS (2 mM) at 37° C. for 1 h. The probe labeled enzymes were coupled to TAMRA-N3 (20 μM) in the presence of 1×TBTA (0.31 mM), sodium ascorbate (2 mM) and freshly prepared CuSO4 (1 mM). The tubes were gently tumbled for 1 h. […] The bands were visualized by scanning the gel in a typhoon scanner (approximate excitation/emission maxima 546/579, respectively).

[5] = target: T4, PAD3 (Homo sapiens, UniProt Q9ULW8); assay: Inactivation kinetics, PAD3; assay type: biochemical; conditions: for kinact/KI: a: single kobs determined; for Fold PAD3 Selectivity: kinact/KI relative to least inhibited isozyme (1.0)
T4 construct: made in house
T4 sequence (Q9ULW8 1-664): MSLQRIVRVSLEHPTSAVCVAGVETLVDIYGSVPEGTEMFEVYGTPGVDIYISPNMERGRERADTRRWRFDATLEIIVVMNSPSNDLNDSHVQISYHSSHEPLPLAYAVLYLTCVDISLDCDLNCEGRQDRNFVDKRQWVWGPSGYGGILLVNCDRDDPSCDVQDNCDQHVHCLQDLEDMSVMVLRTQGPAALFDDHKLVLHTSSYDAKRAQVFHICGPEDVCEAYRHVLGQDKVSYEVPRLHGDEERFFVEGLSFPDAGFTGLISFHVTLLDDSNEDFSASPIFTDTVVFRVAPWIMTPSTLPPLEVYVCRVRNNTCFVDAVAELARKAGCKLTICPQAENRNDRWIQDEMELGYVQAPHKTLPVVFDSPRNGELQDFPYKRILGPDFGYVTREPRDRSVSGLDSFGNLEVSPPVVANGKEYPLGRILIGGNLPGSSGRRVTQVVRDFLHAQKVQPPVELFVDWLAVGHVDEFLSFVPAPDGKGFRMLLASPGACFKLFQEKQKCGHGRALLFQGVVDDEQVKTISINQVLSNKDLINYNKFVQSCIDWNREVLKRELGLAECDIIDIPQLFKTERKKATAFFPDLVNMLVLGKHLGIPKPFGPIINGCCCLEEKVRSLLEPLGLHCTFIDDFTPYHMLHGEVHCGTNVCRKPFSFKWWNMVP
Outline: as §1

[6] = target: T3, PAD2; assay: Inactivation kinetics, PAD2; assay type: biochemical; conditions: for kinact/KI: a: single kobs determined, b: from a linear fit, other footnotes: from kinact and KI; for Fold PAD2 Selectivity: kinact/KI relative to least inhibited isozyme (1.0)
Outline: as §1

T1 sequence (Q9UM07 whole entry): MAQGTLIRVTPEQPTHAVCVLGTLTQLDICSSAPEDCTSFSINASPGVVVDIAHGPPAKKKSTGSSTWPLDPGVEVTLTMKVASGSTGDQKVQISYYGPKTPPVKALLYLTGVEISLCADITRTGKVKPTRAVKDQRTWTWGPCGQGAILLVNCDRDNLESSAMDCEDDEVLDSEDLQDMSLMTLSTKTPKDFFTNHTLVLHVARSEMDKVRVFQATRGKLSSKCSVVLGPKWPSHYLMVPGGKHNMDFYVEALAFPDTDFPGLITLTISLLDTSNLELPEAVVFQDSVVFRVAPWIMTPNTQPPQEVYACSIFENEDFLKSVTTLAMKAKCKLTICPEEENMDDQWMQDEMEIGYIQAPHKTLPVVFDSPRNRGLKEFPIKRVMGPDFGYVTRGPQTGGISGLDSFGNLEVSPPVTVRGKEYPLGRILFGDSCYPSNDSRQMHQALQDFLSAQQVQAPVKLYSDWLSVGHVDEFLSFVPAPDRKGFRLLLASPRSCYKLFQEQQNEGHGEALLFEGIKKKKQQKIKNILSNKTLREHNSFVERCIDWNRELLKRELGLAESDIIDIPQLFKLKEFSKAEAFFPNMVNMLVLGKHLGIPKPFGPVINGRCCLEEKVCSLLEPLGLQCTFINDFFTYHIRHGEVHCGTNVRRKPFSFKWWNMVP
T3 sequence (Q9Y2J8 whole entry): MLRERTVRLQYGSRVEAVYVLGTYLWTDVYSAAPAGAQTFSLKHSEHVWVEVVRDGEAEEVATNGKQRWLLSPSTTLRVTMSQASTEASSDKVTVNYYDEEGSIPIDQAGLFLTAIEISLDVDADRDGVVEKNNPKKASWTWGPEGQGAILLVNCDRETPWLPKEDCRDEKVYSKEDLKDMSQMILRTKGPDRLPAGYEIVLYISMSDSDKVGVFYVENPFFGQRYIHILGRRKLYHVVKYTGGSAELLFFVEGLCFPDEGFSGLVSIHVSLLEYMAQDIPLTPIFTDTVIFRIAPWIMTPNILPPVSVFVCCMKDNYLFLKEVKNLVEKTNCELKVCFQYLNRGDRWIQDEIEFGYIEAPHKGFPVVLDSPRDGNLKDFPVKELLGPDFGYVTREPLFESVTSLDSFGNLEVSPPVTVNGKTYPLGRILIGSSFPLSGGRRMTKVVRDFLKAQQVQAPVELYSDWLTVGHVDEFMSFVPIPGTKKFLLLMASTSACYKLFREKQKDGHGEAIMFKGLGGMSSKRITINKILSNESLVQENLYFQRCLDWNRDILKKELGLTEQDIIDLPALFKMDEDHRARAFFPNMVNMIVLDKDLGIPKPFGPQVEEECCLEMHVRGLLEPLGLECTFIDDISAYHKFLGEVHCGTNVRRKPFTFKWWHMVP

| kinact/KI [2] [M⁻¹ s⁻¹] | Fold PAD4 Selectivity [2] [fold] | kinact/KI [3] [M⁻¹ s⁻¹] | Fold PAD1 Selectivity [3] [fold] | limit of detection (LOD) for PAD2 [4] [fmol] | kinact/KI [5] [M⁻¹ s⁻¹] | Fold PAD3 Selectivity [5] [fold] | kinact/KI [6] [M⁻¹ s⁻¹] | Fold PAD2 Selectivity [6] [fold] | Compound | efficacy in animal models ([1]; rheumatoid arthritis, lupus, ulcerative colitis, spinal cord injury, breast cancer, atherosclerosis) | efficacy in an RA model ([1]; in vivo) |
| --- | --- | --- | --- | --- | --- | --- | --- | --- | --- | --- | --- |
|  |  |  |  |  |  |  |  |  | N=C(CCl)NCCC[C@H](NC(=O)c1ccccc1)C(N)=O [Cl-amidine] | demonstrated efficacy |  |
| 29.5 | 1.8 | 77.5 | 4.8 | 375 | 17.1 | 1.1 | 16.2 | 1.0 | C#Cc1ccc(-c2ccc(C(=O)N[C@@H](CCCNC(=N)CF)c3nc4ccccc4[nH]3)cc2)cc1 [Compound 5u, N1-4′-ethynyl-[1,1′-Phenyl]benzol-N5-(2-fluoro-1-iminoethyl)-1-(1H-benzo[d]imidazol-2-yl)-L-ornithine] |  |  |
| 11.3 | 1.0 | 56 | 4.9 |  | 80 | 7.1 | 119 | 11 | CC(C)n1c([C@H](CCCNC(=N)CCl)NC(=O)c2ccccc2C(=O)OC(C)(C)C)nc2ccccc21 [Compound 9f, N1-(2-tert-butylcarboxy)benzoyl-N5-(2-chloro-1-iminoethyl)-1-(1-isopropyl-benzo[d]imidazol-2-yl)-L-omithine] |  |  |
|  |  |  |  |  |  |  |  |  | GSK199 |  | shows efficacy |
